Values belong to the compound of their own block, whether it stands above or below them.
Target: T1, hMCHR (Homo sapiens, UniProt Q99705)
T1 construct: host or cells: CHO (Chinese hamster ovary) cells, membranes
Experiment: MCH Assay PCOP Protocol: [125I]-MCH binding to hMCHR-CHO membranes, WGA-SPA beads
Conditions: hMCHR-CHO overexpressing membranes, 0.5 nM [125I]-MCH, 2 hours incubation
Description: A reaction mixture of 10 μg hMCHR-CHO overexpressing membranes (from Receptor Biology, Inc., Beltville, Md., or internally produced) and 100 μg/well WGA-SPA beads (from Amersham Pharmacia Biotech, Inc., Piscataway, N.J.)/100 μL was prepared in MCHR assay buffer (25 mM HEPES, pH 7.4, 10 mM NaCl, 10 mM MgCl2, 5 mM MnCl2, 0.1%BSA). […] The assay plates were shaken for 5 minutes on a plate shaker, then incubated for 2 hours before cpm/well were determined in a Microbeta Trilux counter (from Perkin Elmer Wallac, Inc., Gaithersburg, Md.).

T1 sequence (Q99705 whole entry): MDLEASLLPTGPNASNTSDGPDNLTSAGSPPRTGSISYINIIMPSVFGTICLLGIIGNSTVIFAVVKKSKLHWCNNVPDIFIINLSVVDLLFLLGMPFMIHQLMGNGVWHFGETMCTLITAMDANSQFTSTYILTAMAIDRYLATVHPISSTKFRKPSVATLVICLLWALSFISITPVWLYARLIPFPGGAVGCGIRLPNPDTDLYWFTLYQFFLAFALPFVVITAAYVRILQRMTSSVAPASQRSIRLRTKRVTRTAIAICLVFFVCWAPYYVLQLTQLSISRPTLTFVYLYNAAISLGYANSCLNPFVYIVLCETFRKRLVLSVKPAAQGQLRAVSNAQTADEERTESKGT

SMILES: O=C(NCC1(c2ccc(-c3cccc(Cl)c3)cc2)CCN(CC2CC2)CC1)Nc1ccc(F)c(Cl)c1 [Example 49]
Ki: 0.2 to 10 nM

Ki: 11 to 100 nM
SMILES: N#Cc1cccc(-c2ccc(C3(CNCC4CC4)CCN(C(=O)Nc4cc(Cl)cc(Cl)c4)CC3)cc2)c1 [Example 131]

SMILES: CC(C)CN1CCC(CNC(=O)Nc2cc(Cl)cc(Cl)c2)(c2ccc(-c3cccc(C#N)c3)cc2)CC1 [Example 7, 1-[4-(3′-Cyano-biphenyl-4-yl)-1-isobutyl-piperidin-4-ylmethyl]-3-(3,5-dichloro-phenyl)-urea]
Ki: 11 to 100 nM

SMILES: CN(CC1(c2ccc(-c3cccc(C#N)c3)cc2)CCN(CC2CC2)CC1)C(=O)Nc1ccc(Cl)c(C(F)(F)F)c1 [Example 104]
Ki: 11 to 100 nM

SMILES: COCCN1CCC(CNCc2cc(Cl)cc(Cl)c2)(c2ccc(-c3cccc(NC(C)=O)c3)cc2)CC1 [Example 135]
Ki: 101 to 5500 nM

SMILES: CC(C)CN1CCC(CNC(=O)Nc2cc(Cl)cc(Cl)c2)(c2ccc(-c3cccc(Cl)c3)cc2)CC1 [Example 112]
Ki: 11 to 100 nM

SMILES: N#Cc1cccc(-c2ccc(C3(CNC(=O)Nc4ccc(F)c(C(F)(F)F)c4)CCN(CC4CC4)CC3)cc2)c1 [Example 100]
Ki: 0.2 to 10 nM

SMILES: N#Cc1cccc(-c2ccc(C3(CNC(=O)Nc4cc(Cl)cc(Cl)c4)CCN(C4CCOCC4)CC3)cc2)c1 [Example 109]
Ki: 0.2 to 10 nM

SMILES: CN1CCC(CNC(=O)Nc2cc(F)cc(F)c2)(c2ccc(-c3cccc(Cl)c3)cc2)CC1 [Example 55]
Ki: 0.2 to 10 nM

SMILES: CN(CC1(c2ccc(-c3cccc(C#N)c3)cc2)CCN(CC2CC2)CC1)C(=O)Nc1ccc(F)c(Cl)c1 [Example 99]
Ki: 11 to 100 nM

SMILES: COCCN1CCC(CNC(=O)Nc2cc(Cl)cc(Cl)c2)(c2ccc(-c3cccc(CO)c3)cc2)CC1 [Example 93]
Ki: 0.2 to 10 nM

SMILES: CN1CCC(CNC(=O)Nc2ccccc2)(c2ccc(-c3cccc(Cl)c3)cc2)CC1 [Example 62]
Ki: 0.2 to 10 nM

SMILES: CCCN1CCC(CNC(=O)Nc2ccc(Cl)cc2C(F)(F)F)(c2ccc(-c3cccc(Cl)c3)cc2)CC1 [Example 52]
Ki: 101 to 5500 nM

SMILES: N#Cc1cccc(-c2ccc(C3(CNC(=O)Nc4cc(F)cc(F)c4)CCN(CC4CC4)CC3)cc2)c1 [Example 96]
Ki: 0.2 to 10 nM

SMILES: O=C(NCC1(c2ccc(-c3cccc(Cl)c3)cc2)CCN(CC2CC2)CC1)Nc1ccc(Cl)c(C(F)(F)F)c1 [Example 61]
Ki: 11 to 100 nM

SMILES: O=C(NCC1(c2ccc(-c3cccnc3)cc2)CCN(C2CCCC2)CC1)Nc1cc(Cl)cc(Cl)c1 [Example 20]
Ki: 0.2 to 10 nM

SMILES: CC(=O)Nc1cccc(-c2ccc(C3(CNC(=O)Nc4cc(Cl)cc(Cl)c4)CCN(C(C)C)CC3)cc2)c1 [Example 79]
Ki: 0.2 to 10 nM

SMILES: CN1CCC(CN2CCN(c3ccc(F)c(F)c3)C2=O)(c2ccc(-c3cccc(C#N)c3)cc2)CC1 [Example 13]
Ki: 11 to 100 nM

Ki: 101 to 5500 nM
SMILES: N#Cc1cccc(-c2ccc(C3(CN(CC4CC4)CC4CC4)CCN(C(=O)Nc4cc(Cl)cc(Cl)c4)CC3)cc2)c1 [Example 130]

SMILES: COCCN1CCC(CNC(=O)Nc2ccc3c(c2)OCO3)(c2ccc(-c3cccc(C#N)c3)cc2)CC1 [Example 92]
Ki: 0.2 to 10 nM

SMILES: COCCN1CCC(CNCc2cc(Cl)cc(Cl)c2)(c2ccc(-c3cccc(Cl)c3)cc2)CC1 [Example 129]
Ki: 101 to 5500 nM

SMILES: CCCN1CCC2(CC1)CN(C(=O)Nc1ccc(F)c(Cl)c1)c1ccc(-c3cccc(C#N)c3)cc12 [Example 46]
Ki: 101 to 5500 nM

SMILES: CN1CCC(CNC(=O)Cc2ccc(Cl)c(Cl)c2)(c2ccc(-c3cccc(C#N)c3)cc2)CC1 [Example 87]
Ki: 11 to 100 nM

SMILES: N#Cc1cccc(-c2ccc(C3(CNC(=O)Nc4ccc(Cl)c(C(F)(F)F)c4)CCN(CC4CC4)CC3)cc2)c1 [Example 50]
Ki: 0.2 to 10 nM

SMILES: CN1CCC(CNC(=O)Nc2ccc(Cl)cc2C(F)(F)F)(c2ccc(-c3cccc(Cl)c3)cc2)CC1 [Example 59]
Ki: 101 to 5500 nM

SMILES: CCCN1CCC(CNC(=O)Nc2ccc3c(c2)OCO3)(c2ccc(-c3cccc(C#N)c3)cc2)CC1 [Example 101]
Ki: 11 to 100 nM

SMILES: CCN1CCC(CNC(=O)Nc2cc(Cl)cc(Cl)c2)(c2ccc(-c3cccc(Cl)c3)cc2)CC1 [Example 121]
Ki: 11 to 100 nM

SMILES: CCCN1CCC(CNC(=O)Nc2cc(Cl)cc(Cl)c2)(c2ccc(C)cc2)CC1 [Example 27]
Ki: 101 to 5500 nM

SMILES: COCCN1CCC(CNC(=O)Nc2ccc(OC)c(Cl)c2)(c2ccc(-c3cccc(C#N)c3)cc2)CC1 [Example 95]
Ki: 11 to 100 nM

SMILES: CN(CC1(c2ccc(-c3cccc(C#N)c3)cc2)CCN(CC2CC2)CC1)C(=O)Nc1cc(F)cc(F)c1 [Example 97]
Ki: 11 to 100 nM

SMILES: COCCN1CCC(CNC(=O)Nc2cc(F)cc(F)c2)(c2ccc(-c3cccc(C#N)c3)cc2)CC1 [Example 105]
Ki: 0.2 to 10 nM

— patent US6887889B2 (Pharmacopeia Drug Discovery, Inc., priority 2001, dated 2005)
